Test results: patent publication US20020049167A1, “Azithromycin as a therapeutic agent for infections with leishmania parasites” (priority 2000, published 2002)

Assays:
[1] = system: Leishmania major; experiment: In vitro susceptibility of Leishmania major amastigotes in murine monocyte-derived bone marrow macrophages (Giemsa counting); assay type: cell-based; settings: for multiplication index: analysis of variance; for percentage of macrophages infected: by day five; for number of amastigotes found in infected cells: day five
Procedure: Monocyte-derived bone marrow macrophages from C57B1/6 naïve mice. These cells were harvested from the femoral bones and incubated for 7 days at 37° C. in 5% CO2 in complete tissue culture medium [DMEM, 20% heat inactivated fetal calf serum, 1% Penicillin/streptomycin, 1% glutamine, 1% pyruvate, 30% L-cell line supernatant]. After 7 days, 50×10^6 macrophages per mouse donor were recovered from the cultures. The cells were then washed and 1×10^6 macrophages were added to the wells (16 mm diameter) of a 24 well plate at the bottom of which was placed a round glass cover slip. The macrophages were added to the wells in 300 μl of culture medium consisting of RPMI 1640,10% heat inactivated fetal calf serum, 1% Penicillin/streptomycin, 1% glutamine, 2.5% BEPES, and 0.1% 2-mercaptoethanol.
Cryopreserved amastigotes of Leishmania major (Friedlin strain), originally obtained from footpad lesions of SCID mice, were thawed, washed with medium and counted in a hemocytometer, then re-suspended in complete medium and added to the wells at a concentration of 1 million per well (amastigote/macrophage ratio 1:1) in 50 μl of complete medium. The total volume of media in each well was […].
Amphotericin B (Fungizone, Gibco) was reconstituted from a lyophilized form and azithromycin (Zithromax, Pfizer) was prepared from a 500 mg-powder vial for IV use; both antibiotics were reconstituted in sterile water and diluted in complete medium to the desired concentration. Amphotericin B was used at a concentration of 1 mg/ml and azithromycin at concentrations of 0.1, 0.6, 3 and 15 μg/ml.
After mixing the macrophages with the amastigotes, the plates were incubated for 3 hrs. at 37° C. in 5% Co2; at that point the plates were washed with PBS to eliminate non-adherent macrophages and free amastigotes. Medium with or without antibiotics was added to the wells at a final volume of 3 ml. Some of the cultures were removed from the wells at this point and placed in petri dishes containing 50 mls of medium with antibiotics. Amphotericin B was used as a positive control group in all the experiments. The cultures were maintained at 37° C. in 5% CO2 and culture media and antibiotics were changed daily.
Before adding antibiotics on day 0 and on days 3 and 5, cover slips were recovered from the wells and petri dishes, immediately fixed and stained with Giemsa for counting, which was performed using 1000X magnification with immersion oil. All the experiments were carried out in duplicate.
Two cover slips were recovered from each time point and the data obtained for each slide was as follows: 200 to 300 macrophages were counted, number of infected macrophages per 100 macrophages and number of amastigotes per 100 macrophages was determined. The results reported are the mean values of those two parasite counts. Experiments were repeated a minimum of two times.

[2] = system: macrophages; settings: levels versus that obtained in the serum (Gladue et al. 1989); cited from earlier work
[3] = amphotericin B at 1 mg/ml, Day 0 (before adding antibiotics)
[4] = amphotericin B at 1 mg/ml, Day 3
[5] = amphotericin B at 1 mg/ml, Day 5
[6] = 0.1 μg/ml azithromycin, Day 0 (before adding antibiotics)
[7] = 0.6 μg azithromycin, volume 3 ml, five days
[8] = 0.6 μg/ml azithromycin, Day 0 (before adding antibiotics)
[9] = 3.0 μg azithromycin, volume 3 ml, five days
[10] = 3.0 μg/ml azithromycin, Day 0 (before adding antibiotics)
[11] = 15 μg/ml azithromycin, Day 0 (before adding antibiotics)

Question: Which results are given for `C[C@@H]1[C@H](O)[C@@H](C)/C=C/C=C/C=C/C=C/C=C/C=C/C=C/[C@H](O[C@@H]2O[C@H](C)[C@@H](O)[C@H](N)[C@@H]2O)C[C@@H]2O[C@](O)(C[C@@H](O)C[C@@H](O)[C@H](O)CC[C@@H](O)C[C@@H](O)CC(=O)O[C@H]1C)C[C@H](O)[C@H]2C(=O)O` [Amphotericin B]?
Answer: multiplication index ([1]; 1 mg/ml of amphotericin B): significant reduction; Number of Amastigotes/100 macrophages [1, 3]: 27 /100 macrophages; Percent Infected Macrophages [1, 3]: 16%; Number of Amastigotes/100 macrophages [1, 4]: 1 /100 macrophages; Percent Infected Macrophages [1, 4]: 1%; Number of Amastigotes/100 macrophages [1, 5]: 0 /100 macrophages; Percent Infected Macrophages [1, 5]: 0%; percentage of macrophages infected ([1]; 1 mg/ml of amphotericin B): significant decrease; number of amastigotes found in infected cells ([1]; 1 mg/ml of amphotericin B): significant decrease

Question: What does the source list for `CC[C@H]1OC(=O)[C@H](C)[C@@H](O[C@H]2C[C@@](C)(OC)[C@@H](O)[C@H](C)O2)[C@H](C)[C@@H](O[C@@H]2O[C@H](C)C[C@H](N(C)C)[C@H]2O)[C@](C)(O)C[C@@H](C)CN(C)[C@H](C)[C@@H](O)[C@]1(C)O` [azithromycin]?
Answer: drug accumulation in the tissue cells, especially in macrophages, relative to serum [2]: 110 times; Number of Amastigotes/100 macrophages [1, 6]: 27 /100 macrophages; Percent Infected Macrophages [1, 6]: 16%; Number of Amastigotes/100 macrophages ([1]; 0.1 μg/ml azithromycin, Day 3): 10 /100 macrophages; Percent Infected Macrophages ([1]; 0.1 μg/ml azithromycin, Day 3): 8%; Number of Amastigotes/100 macrophages ([1]; 0.1 μg/ml azithromycin, Day 5): 38 /100 macrophages; Percent Infected Macrophages ([1]; 0.1 μg/ml azithromycin, Day 5): 24%; Number of Amastigotes/100 macrophages ([1]; 0.6 μg azithromycin, five days): 11 /100 macrophages; Number of Amastigotes/100 macrophages [1, 7]: 23 /100 macrophages; Percent Infected Macrophages [1, 7]: 17%; Percent Infected Macrophages ([1]; 0.6 μg azithromycin, volume 50 ml, five days): 10%; Number of Amastigotes/100 macrophages [1, 8]: 27 /100 macrophages; Percent Infected Macrophages [1, 8]: 16%; Number of Amastigotes/100 macrophages ([1]; 0.6 μg/ml azithromycin, Day 3): 14 /100 macrophages; Percent Infected Macrophages ([1]; 0.6 μg/ml azithromycin, Day 3): 28%; Number of Amastigotes/100 macrophages ([1]; 0.6 μg/ml azithromycin, Day 5): 11 /100 macrophages; Percent Infected Macrophages ([1]; 0.6 μg/ml azithromycin, Day 5): 17%; Number of Amastigotes/100 macrophages ([1]; 3.0 μg azithromycin, five days): 13 /100 macrophages; Number of Amastigotes/100 macrophages [1, 9]: 11 /100 macrophages; Percent Infected Macrophages [1, 9]: 9%; Percent Infected Macrophages ([1]; 3.0 μg azithromycin, volume 50 ml, five days): 11%; Number of Amastigotes/100 macrophages [1, 10]: 27 /100 macrophages; Percent Infected Macrophages [1, 10]: 16%; Number of Amastigotes/100 macrophages ([1]; 3.0 μg/ml azithromycin, Day 3): 45 /100 macrophages; Percent Infected Macrophages ([1]; 3.0 μg/ml azithromycin, Day 3): 31%; Number of Amastigotes/100 macrophages ([1]; 3.0 μg/ml azithromycin, Day 5): 13 /100 macrophages; Percent Infected Macrophages ([1]; 3.0 μg/ml azithromycin, Day 5): 9%; Number of Amastigotes/100 macrophages [1, 11]: 27 /100 macrophages; Percent Infected Macrophages [1, 11]: 16%; Number of Amastigotes/100 macrophages ([1]; 15 μg/ml azithromycin, Day 3): 13 /100 macrophages; Percent Infected Macrophages ([1]; 15 μg/ml azithromycin, Day 3): 10%; Number of Amastigotes/100 macrophages ([1]; 15 μg/ml azithromycin, Day 5): 12 /100 macrophages; Percent Infected Macrophages ([1]; 15 μg/ml azithromycin, Day 5): 9%; multiplication index ([1]; 0.6-15 μg/ml of azithromycin): significant reduction; ability to limit the replication of L. major (multiplication index) compared with 1 mg/ml of amphotericin B ([1]; 3 and 15 μg/ml of azithromycin): statistically equal; 50% effective dose (ED50) ([1]; L. major in murine macrophages in vitro): < 0.6 µg/mL; percentage of macrophages infected ([1]; 0.6-15 μg/ml of azithromycin): significant decrease; number of amastigotes found in infected cells ([1]; 3.0-15 μg/ml of azithromycin): significant decrease
